Reference: patent US7893203B2, “Protein involved in G protein-coupled receptor mediated signal transduction with ability to mediate signal transduction from a dopamine D1 receptor or an adenosine A2A receptor to an adenylate cyclase and utilization thereof” (Sumitomo Chemical Company, Ltd., priority 2002, dated 2011)

Target: T1, adenosine A2a receptor (Homo sapiens, UniProt P29274)
T1 construct: expressed in transfected cells; host or cells: CHO cells, transient lipofection
Assay: Screening of adenosine A2a receptor antagonist using change in cAMP level as index
Type: cell-based
Settings: 10 μM test substance with 10 μM adenosine, CHO cells with A2a receptor and Gm1, cAMP level
Method: Then, 10 μM of adenosine as a GPCR ligand and 10 μM of a test substance (DMPX) were added and incubated at 37° C. for 30 minutes.
A substance which gave a cAMP level percentage of 85% or less upon contact of the cell with the ligand and the test substance was selected as a signal transduction inhibitor (antagonist), on the basis of the cAMP level with no contact being 0% and the cAMP level with the contact of the cell only with the ligand being 100% (FIG. 4).

T1 sequence (P29274 whole entry): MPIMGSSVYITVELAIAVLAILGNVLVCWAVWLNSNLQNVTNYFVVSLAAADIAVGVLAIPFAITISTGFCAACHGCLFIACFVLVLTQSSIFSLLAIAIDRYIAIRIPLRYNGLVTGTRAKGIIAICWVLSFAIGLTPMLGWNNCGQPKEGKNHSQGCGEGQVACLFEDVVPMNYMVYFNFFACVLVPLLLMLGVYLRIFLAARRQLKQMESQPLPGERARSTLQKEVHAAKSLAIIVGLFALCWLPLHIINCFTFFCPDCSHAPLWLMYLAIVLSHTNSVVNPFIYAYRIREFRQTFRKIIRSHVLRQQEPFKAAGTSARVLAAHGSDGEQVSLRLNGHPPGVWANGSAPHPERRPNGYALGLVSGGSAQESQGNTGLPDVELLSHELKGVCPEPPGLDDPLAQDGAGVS

Question: `C#CCn1c(=O)c2c(ncn2C)n(C)c1=O` [DMPX] was tested. Which “adenosine A2a receptor antagonistic effects (FIG. 4)” value did it give?
Answer: antagonistic effects
